The assay has as its target KRas G12D (Homo sapiens (Human), UniProt P01116, G12D). The assay can be described thus: KRas G12D Binding Assay (TR-FRET displacement of Cy5 labelled tracer). To be noted: GDP-loaded KRAS G12D (amino acids 1:169), 60 minute incubation at 22° C. The protocol: After a 60 minute incubation at 22° C., the reaction was measured using a PerkinElmer EnVision multimode plate reader via TR-FRET dual wavelength detection, and the percent of control (POC) calculated using a ratiometric emission factor. […] The POC values were fit to a 4-parameter logistic curve and the IC50 value was determined as the concentration where the curve crosses 50 POC.
ND stands for “not determined.”
For orientation: In TR-FRET formats the signal depends on donor and acceptor labels being close together.

Each structure is given as a SMILES string.

These results are taken from patent US20230279025A1, “KRAS G12D INHIBITORS” (Mirati Therapeutics, Inc., priority 2020, published 2023).

Chain of KRas G12D (P01116 other isoform, or with tags, fused parts or gaps G12D): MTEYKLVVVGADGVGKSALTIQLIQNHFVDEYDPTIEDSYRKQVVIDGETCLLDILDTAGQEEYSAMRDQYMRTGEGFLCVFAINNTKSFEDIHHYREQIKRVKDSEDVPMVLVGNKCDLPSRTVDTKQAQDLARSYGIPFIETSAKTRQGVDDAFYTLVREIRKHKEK

The IC50 is the concentration needed to halve the response being measured. In turn, `COCCNC(=O)O[C@@H]1C[C@@H](COc2nc(N3C[C@H]4CC[C@@H](C3)N4)c3cnc(-c4cccc5cccc(Cl)c45)c(F)c3n2)N(C)C1` [Example 280, (3R,5S)-5-(((4-((1R,5S)-3,8-diazabicyclo[3.2.1]octan-3-yl)-7-(8-chloronaphthalen-1-yl)-8-fluoropyrido[4,3-d]pyrimidin-2-yl)oxy)methyl)-1-methylpyrrolidin-3-yl (2-methoxyethyl)carbamate] displayed an IC50 of 0.0998 µM.
To `OCc1nccn1CCOc1nc(N2CC3CCC(C2)N3)c2cnc(-c3cccc4cccc(Cl)c34)c(F)c2n1` [Example 171, (1-(2-((4-(3,8-diazabicyclo[3.2.1]octan-3-yl)-7-(8-chloronaphthalen-1-yl)-8-fluoropyrido[4,3-d]pyrimidin-2-yl)oxy)ethyl)-1H-imidazol-2-yl)methanol] belongs 0.757 µM.
Next, `Fc1c(-c2cccc3cccc(Cl)c23)ncc2c(N3C[C@H]4CC[C@@H](C3)N4)nc(OCCC3CC(F)(F)C3)nc12` [Example 129, 4-((I R,5S)-3,8-diazabicyclo[3.2.1]octan-3-yl)-7-(8-chloronaphthalen-1-yl)-2-(2-(3,3-difluorocyclobutyl)ethoxy)-8-fluoropyrido[4,3-d]pyrimidine]: 4.09 µM.
In turn, `CO[C@H](C)COc1nc(N2C[C@H]3CC[C@@H](C2)N3)c2cnc(-c3cccc4cccc(Cl)c34)c(F)c2n1` [Example 138, 4-((1R,5S)-3,8-diazabicyclo[3.2.1]octan-3-yl)-7-(8-chloronaphthalen-1-yl)-8-fluoro-2-((R)-2-methoxypropoxy)pyrido[4,3-d]pyrimidine] showed an IC50 of 8.07 µM.
Next, `C#Cc1c(F)ccc2cccc(-c3ncc4c(N5C[C@H]6CC[C@@H](C5)N6)nc(OCC56CCCN5CCC6)nc4c3F)c12` [Example 189, 4-((1R,5S)-3,8-diazabicyclo[3.2.1]octan-3-yl)-7-(8-ethynyl-7-fluoronaphthalen-1-yl)-8-fluoro-2-((tetrahydro-1H-pyrrolizin-7a(5H)-yl)methoxy)pyrido[4,3-d]pyrimidine]: 0.0005 µM; `Cc1cccc(-c2ncc3c(N4C[C@H]5CC[C@@H](C4)N5)nc(OCC45CCCN4CCC5)nc3c2F)c1Cl` [Example 276, 4-((1R,5S)-3,8-diazabicyclo[3.2.1]octan-3-yl)-7-(2-chloro-3-methylphenyl)-8-fluoro-2-((hexahydro-1H-pyrrolizin-7a-yl)methoxy)pyrido[4,3-d]pyrimidine]: 0.0162 µM; `Oc1cccc2cccc(-c3ncc4c(N5C[C@H]6CC[C@@H](C5)N6)nc(OCC56CCCN5CCC6)nc4c3F)c12` [Example 237, 8-(4-((1R,5S)-3,8-diazabicyclo[3.2.1]octan-3-yl)-8-fluoro-2-((tetrahydro-1H-pyrrolizin-7a(5H)-yl)methoxy)pyrido[4,3-d]pyrimidin-7-yl)naphthalen-1-ol]: 0.5 µM.
In turn, `Nc1nccn1CCOc1nc(N2CC3CCC(C2)N3)c2cnc(-c3cccc4cccc(Cl)c34)c(F)c2n1` [Example 178, 1-[2-[7-(8-chloro-1-naphthyl)-4-(3,8-diazabicyclo[3.2.1]octan-3-yl)-8-fluoro-pyrido[4,3-d]pyrimidin-2-yl]oxyethyl]imidazol-2-amine] came in with an IC50 of 0.105 µM. Compared with the last compound, the IC50 is about 4.8-fold lower.
Next, `CC1CCc2cccc(-c3ncc4c(N5CC6CCC(C5)N6)nc(OC[C@@]56CCCN5C[C@H](F)C6)nc4c3F)c21` (stereo partly drawn) [Example 429, 4-(3,8-diazabicyclo[3.2.1]octan-3-yl)-8-fluoro-2-(((2R,7aS)-2-fluorotetrahydro-1H-pyrrolizin-7a(5H)-yl)methoxy)-7-(3-methyl-2,3-dihydro-1H-inden-4-yl)pyrido[4,3-d]pyrimidine]: 0.0185 µM.
To `O[C@@H]1C[C@@H]2CN(c3nc(OCCC(F)(F)F)nc4c(F)c(-c5cccc6cccc(Cl)c56)ncc34)C[C@H]1N2` [Example 155, (1R,5R,6R)-3-(7-(8-chloronaphthalen-1-yl)-8-fluoro-2-(3,3,3-trifluoropropoxy)pyrido[4,3-d]pyrimidin-4-yl)-3,8-diazabicyclo[3.2.1]octan-6-ol] belongs 3.42 µM; to `O[C@@H]1C[C@@H]2CN(c3nc(OCCc4nccn4CF)nc4c(F)c(-c5cccc6cccc(Cl)c56)ncc34)C[C@H]1N2` [Example 170, (1R,5R,6R)-3-(7-(8-chloronaphthalen-1-yl)-8-fluoro-2-(2-(1-(fluoromethyl)-1H-imidazol-2-yl)ethoxy)pyrido[4,3-d]pyrimidin-4-yl)-3,8-diazabicyclo[3.2.1]octan-6-ol], 0.842 µM.
To `Fc1c(-c2cccc(Cl)c2Cl)ncc2c(N3C[C@H]4CC[C@@H](C3)N4)nc(OCC34CCCN3CCC4)nc12` [Example 277, 4-((1R,5S)-3,8-diazabicyclo[3.2.1]octan-3-yl)-7-(2,3-dichlorophenyl)-8-fluoro-2-((hexahydro-1H-pyrrolizin-7a-yl)methoxy)pyrido[4,3-d]pyrimidine] belongs 0.0352 µM; to `COc1cccc2cccc(-c3ncc4c(N5C[C@H]6CC[C@@H](C5)N6)nc(OCC56CCCN5CCC6)nc4c3F)c12` [Example 236, 4-((1R,5S)-3,8-diazabicyclo[3.2.1]octan-3-yl)-8-fluoro-2-((hexahydro-1H-pyrrolizin-7a-yl)methoxy)-7-(8-methoxynaphthalen-1-yl)pyrido[4,3-d]pyrimidine], 0.025 µM.
The compound `Fc1c(-c2cccc3cccc(C(F)(F)F)c23)ncc2c(N3C[C@H]4CC[C@@H](C3)N4)nc(OC[C@@]34CCCN3C[C@H](F)C4)nc12` [Example 419, 4-((1R,5S)-3,8-diazabicyclo[3.2.1]octan-3-yl)-8-fluoro-2-(((2R,7aS)-2-fluorotetrahydro-1H-pyrrolizin-7a(5H)-yl)methoxy)-7-(8-(trifluoromethyl)naphthalen-1-yl)pyrido[4,3-d]pyrimidine] returned an IC50 of 0.0509 µM.
Next, `CC(C)c1c(Cl)cc(O)cc1-c1ncc2c(N3C[C@H]4CC[C@@H](C3)N4)nc(OC[C@@]34CCCN3C[C@H](F)C4)nc2c1F` [Example 291, 3-(4-((1R,5S)-3,8-diazabicyclo[3.2.1]octan-3-yl)-8-fluoro-2-(((2R,7aS)-2-fluorohexahydro-1H-pyrrolizin-7a-yl)methoxy)pyrido[4,3-d]pyrimidin-7-yl)-5-chloro-4-isopropylphenol]: 0.0016 µM; `CO[C@H]1CN[C@H](COc2nc(N3C[C@H]4CC[C@@H](C3)N4)c3cnc(-c4cccc5cccc(Cl)c45)c(F)c3n2)C1` [Example 351, 4-((1R,5S)-3,8-diazabicyclo[3.2.1]octan-3-yl)-7-(8-chloronaphthalen-1-yl)-8-fluoro-2-(((2S,4R)-4-methoxypyrrolidin-2-yl)methoxy)pyrido[4,3-d]pyrimidine]: 0.0948 µM.
To `CNC(=O)OC[C@H]1CC[C@@]2(COc3nc(N4CC5CCC(C4)N5)c4cnc(-c5cccc6cccc(Cl)c56)c(F)c4n3)CCCN12` [Example 408, (7a-(((4-(3,8-diazabicyclo[3.2.1]octan-3-yl)-7-(8-chloronaphthalen-1-yl)-8-fluoropyrido[4,3-d]pyrimidin-2-yl)oxy)methyl)hexahydro-1H-pyrrolizin-3-yl)methyl methylcarbamate] belongs 0.0031 µM.
